Reference: patent US7732464B2, “Heterocyclic substituted 4-(aminomethyl)-piperidine benzamides as 5HT4-antagonists” (Janssen Pharmaceutica, N.V., priority 2003, dated 2010)

What was measured:
[1] = target: T1, h5-HT4b (Homo sapiens, UniProt Q13639); assay: 5HT4 antagonism: [3H]GR113808 binding to membranes of h5-HT4b-HEK 293 clone 9 cells; details: displacement of [3H]GR113808 0.1 nM; h5-HT4b-HEK 293 membranes; 30 min at 25° C.; read-out: pIC50 (5HT4 antagonistic data) (converted)
T1 construct: expressed in transfected cells; host or cells: HEK 293 (clone 9), membrane preparation
T1 sequence (Q13639 whole entry): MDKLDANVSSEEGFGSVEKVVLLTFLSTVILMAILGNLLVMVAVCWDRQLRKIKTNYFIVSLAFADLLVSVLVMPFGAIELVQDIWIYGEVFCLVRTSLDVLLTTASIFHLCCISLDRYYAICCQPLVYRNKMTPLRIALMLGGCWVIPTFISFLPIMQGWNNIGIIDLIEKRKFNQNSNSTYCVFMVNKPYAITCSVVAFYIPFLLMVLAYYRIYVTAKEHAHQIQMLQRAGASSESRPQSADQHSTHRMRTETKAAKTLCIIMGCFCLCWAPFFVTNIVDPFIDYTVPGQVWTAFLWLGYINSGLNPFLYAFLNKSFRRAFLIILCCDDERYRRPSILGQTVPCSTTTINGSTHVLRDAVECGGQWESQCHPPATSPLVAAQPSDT
Procedure: h5-HT4b-HEK 293 clone 9 cells were cultured in 150 mm Petri dishes and washed twice with cold PBS. The cells were then scraped from the plates and suspended in 50 mM Tris-HCl buffer, pH 7.4 and harvested by centrifugation at 23,500 rpm for 10 minutes. The pellet was resuspended in 5 mM Tris-HCl, pH 7.4 and homogenized with an Ultra Turrax homogenizer. The membranes were collected by centrifugation at 30,000 rpm for 20 min, resuspended in 50 mM Tris-HCl pH 7.4 and stored at −80° C. For the experiment, assay mixtures (0.5 ml) contained 50 μl of the tritiated ligand (5-HT4 antagonist [^3H]GR113808 0.1 nM) and 0.4 ml membrane preparation (15 μg protein/ml). 50 μl of 10% DMSO was added for total binding. 50 μl of 1 μM of (+)-trans-(1-butyl-3-hydroxy-4-piperidinyl)methyl 8-amino-7-chloro-2,3-dihydro-1,4-benzodioxin-5-carboxylate (a proprietary 5HT4 agonist of Janssen Pharmaceutica) was added for determination of non-specific binding.
The [^3H]GR113808 assay buffer was 50 mM HEPES-NaOH, pH 7.4. The mixtures were incubated for 30 min at 25° C. The incubation was terminated by filtration over a Unifilter 96 GF/B presoaked in 0.1% polyethylenimine, followed by six washing steps with 50 mM HEPES-NaOH, pH 7.4.

[2] = Metabolic stability: incubation with liver microsomes and NADPH-generating system, LC-MS analysis; assay type: in vitro ADME; details: compound 5 μM; microsomes 1 mg/ml; NADPH-generating system; 60 minutes at 37 degrees Celsius
Procedure: Sub-cellular tissue preparations were made according to Gorrod et al. (Xenobiotica 5: 453-462, 1975) by centrifugal separation after mechanical homogenization of tissue. Liver tissue was rinsed in ice-cold 0.1 M Tris-HCl (pH 7.4) buffer to wash excess blood. Tissue was then blotted dry, weighed and chopped coarsely using surgical scissors. The tissue pieces were homogenized in 3 volumes of ice-cold 0.1 M phosphate buffer (pH 7.4).
Tissue homogenates were centrifuged at 9000×g for 20 minutes at 4° C. The resulting supernatant was stored at −80° C. and is designated ‘S9’.
The S9 fraction can be further centrifuged at 100.000×g for 60 minutes (4° C.). The resulting supernatant was carefully aspirated, aliquoted and designated ‘cytosol’. The pellet was re-suspended in 0.1 M phosphate buffer (pH 7.4) in a final volume of 1 ml per 0.5 g original tissue weight and designated ‘microsomes’.
All sub-cellular fractions were aliquoted, immediately frozen in liquid nitrogen and stored at −80° C. until use.
For the samples to be tested, the incubation mixture contained PBS (0.1M), compound (5 μM), microsomes (1 mg/ml) and a NADPH-generating system (0.8 mM glucose-6-phosphate, 0.8 mM magnesium chloride and 0.8 Units of glucose-6-phosphate dehydrogenase). Control samples contained the same material but the microsomes were replaced by heat inactivated (10 minutes at 95 degrees Celsius) microsomes. Recovery of the compounds in the control samples was always 100%.
The mixtures were preincubated for 5 minutes at 37 degrees Celsius. The reaction was started at time point zero (t=0) by addition of 0.8 mM NADP and the samples were incubated for 60 minutes (t=60). The reaction was terminated by the addition of 2 volumes of DMSO. Then the samples were centrifuged for 10 minutes at 900×g and the supernatants were stored at room temperature for no longer as 24 hours before analysis. All incubations were performed in duplo. Analysis of the supernatants was performed with LC-MS analysis. Elution of the samples was performed on a Xterra MS C18 (50×4.6 mm, 5 μm, Waters, US). An Alliance 2790 (Supplier: Waters, US) HPLC system was used. Elution was with buffer A (25 mM ammoniumacetate (pH 5.2) in H2O/acetonitrile (95/5)), solvent B being acetonitrile and solvent C methanol at a flow rate of 2.4 ml/min. The gradient employed was increasing the organic phase concentration from 0% over 50% B and 50% C in 5 min up to 100% B in 1 minute in a linear fashion and organic phase concentration was kept stationary for an additional 1.5 minutes. Total injection volume of the samples was 25 μl.
A Quatro triple quadrupole mass spectrometer fitted with and ESP source was used as detector. The source and the desolvation temperature were set at 120 and 350° C. respectively and nitrogen was used as nebuliser and drying gas. Data were acquired in positive scan mode (single ion reaction). Cone voltage was set at 10 V and the dwell time was 1 second.
Metabolic stability was expressed as % metabolism of the compound after 60 minutes (equation given as Example) of incubation in the presence of active microsomes E(act))

Compound	IC50 [1]	% metabolised compound after 60 minutes [2]
O=C(NC[C@@H]1CCN(CCCc2cc(O)no2)C[C@H]1O)c1cc(F)cc2c1OCCCO2 [Compound 36]	14.1 nM	10%
N#Cc1cc2c(c(C(=O)NC[C@@H]3CCN(CCCc4cc(O)no4)C[C@H]3O)c1)OCCO2 [Compound 3]	148 nM	–
Cc1cc2c(c(C(=O)NC[C@@H]3CCN(CCCCn4ccc(O)n4)C[C@H]3O)c1)OCCCO2 [Compound 15]	1.91 nM	26%
Cc1cc2c(c(C(=O)NC[C@@H]3CCN(CCCCN4CCOCC4)C[C@H]3O)c1)OCCCO2 [Compound 38]	1.05 nM	18%
O=C(NC[C@@H]1CCN(CCc2nnn[nH]2)C[C@H]1O)c1cc(Cl)cc2c1OCCCO2 [Compound 20]	64.6 nM	0%
O=C(NC[C@@H]1CCN(CCCn2nn[nH]c2=O)C[C@H]1O)c1cc(Cl)cc2c1OCCCO2 [Compound 16]	18.2 nM	0.5%
O=C1CN(CCCN2CC[C@@H](CNC(=O)c3cc(Cl)cc4c3OCCCO4)[C@H](O)C2)C(=O)N1 (relative stereo) [Compound 21]	6.46 nM	30.5%
COC1CN(CCCc2cc(O)no2)CCC1CNC(=O)c1cc(Cl)cc2c1OCCCO2 (centres unmarked) [Compound 39]	22.9 nM	17%
COc1ccc(C(=O)NC[C@@H]2CCN(CCCc3cc(O)no3)C[C@H]2O)c2c1OCCO2 [Compound 5]	123 nM	4%
Cc1cc2c(c(C(=O)NC[C@@H]3CCN(CCCCc4nnn[nH]4)C[C@H]3O)c1)OCCCO2 [Compound 13]	13.2 nM	2%
COc1ccc(C(=O)NCC2CCN(CCCc3cc(O)no3)CC2OC)c2c1OCCCO2 (centres unmarked) [Compound 44]	372 nM	3%
Cc1ccc(C(=O)NC[C@@H]2CCN(CCc3nnn[nH]3)C[C@H]2O)c2c1OCCCO2 [Compound 22]	9.55 nM	4.5%
O=C(NC[C@@H]1CCN(CCCCc2nnn[nH]2)C[C@H]1O)c1cc(Cl)cc2c1OCCCO2 [Compound 8]	7.24 nM	2.5%
COc1ccc(C(=O)NC[C@@H]2CCN(CCCCn3ccc(O)n3)C[C@H]2O)c2c1OCCO2 [Compound 1]	2.4 nM	5%
Cc1ccc(C(=O)NC[C@@H]2CCN(CCCc3cc(O)no3)C[C@H]2O)c2c1OCCCO2 [Compound 26]	16.6 nM	3%
Cc1cc2c(c(C(=O)NC[C@@H]3CCN(CCCc4cc(O)no4)C[C@H]3O)c1)OCCO2 [Compound 2]	8.71 nM	0%
O=C(NC[C@@H]1CCN(CCCc2cc(O)no2)C[C@H]1O)c1cccc2c1OCCCO2 [Compound 37]	17.8 nM	1%
Cc1cc2c(c(C(=O)NC[C@@H]3CCN(CCCc4cc(O)no4)C[C@H]3O)c1)OCCCO2 [Compound 23]	16.6 nM	6%

Compound	IC50 [1]	% metabolised compound after 60 minutes [2]
N#Cc1cc2c(c(C(=O)NC[C@@H]3CCN(CCCCn4ccc(O)n4)C[C@H]3O)c1)OCCCO2 [Compound 34]	3.89 nM	11%
O=C(NC[C@@H]1CCN(CCCc2cc(O)no2)C[C@H]1O)c1cc(Cl)cc2c1OCCCO2 [Compound 27]	10.2 nM	12%
COC1CN(CCCCn2ccc(O)n2)CCC1CNC(=O)c1cc(C#N)cc2c1OCCCO2 (centres unmarked) [Compound 25]	33.9 nM	55%
O=C(NC[C@@H]1CCN(CCCc2cc(O)no2)C[C@H]1O)c1cc(F)cc2c1OCCO2 [Compound 6]	2750 nM	8%
COC1CN(CCCc2cc(O)no2)CCC1CNC(=O)c1cc(C)cc2c1OCCCO2 (centres unmarked) [Compound 45]	132 nM	6%
COc1ccc(C(=O)NCC2CCN(CCCCn3ccc(O)n3)CC2OC)c2c1OCCO2 (centres unmarked) [Compound 4]	11.5 nM	11%
COC1CN(CCCCn2ccc(O)n2)CCC1CNC(=O)c1cc(Cl)c(Cl)c2c1OCCCO2 (centres unmarked) [Compound 32]	0.759 nM	–
Cc1ccc(C(=O)NC[C@@H]2CCN(CCCc3nnn[nH]3)C[C@H]2O)c2c1OCCCO2 [Compound 9]	7.94 nM	3%
Cc1ccc(C(=O)NC[C@@H]2CCN(CCCCc3nnn[nH]3)C[C@H]2O)c2c1OCCCO2 [Compound 10]	5.62 nM	2%
COc1ccc(C(=O)NC[C@@H]2CCN(CCCCN3CCOCC3)C[C@H]2O)c2c1OCCCO2 [Compound 42]	4.07 nM	0%
COc1ccc(C(=O)NC[C@@H]2CCN(CCCc3cc(O)no3)C[C@H]2O)c2c1OCCCO2 [Compound 35]	83.2 nM	–
O=C(NCC1CCN(CCCCn2ccc(O)n2)CC1O)c1cc(Cl)c(Cl)c2c1OCCCO2 (centres unmarked) [Compound 29]	0.871 nM	50%
O=C(NCC1CCN(CCCCn2ccc(O)n2)CC1O)c1cc(Cl)c(Br)c2c1OCCCO2 (centres unmarked) [Compound 28]	1.17 nM	53%
O=C(NCC1CCN(CCCCn2ccc(O)n2)CC1O)c1cc(Cl)cc2c1OCCCO2 (centres unmarked) [Compound 11]	1.26 nM	39%
Cc1cc2c(c(C(=O)NCC3CCN(CCCN4CC(=O)NC4=O)CC3O)c1)OCCCO2 (centres unmarked) [Compound 24]	7.08 nM	16%
O=C(NCC1CCN(CCCc2nnn[nH]2)CC1O)c1cc(Cl)cc2c1OCCCO2 (centres unmarked) [Compound 7]	31.6 nM	5%
Cc1cc2c(c(C(=O)NC[C@@H]3CCN(CCCN4C(=O)CNC4=O)C[C@H]3O)c1)OCCCO2 [Compound 31]	1.48 nM	12%
CO[C@@H]1CN(CCCCn2ccc(O)n2)CC[C@H]1CNC(=O)c1cc(Cl)c(Br)c2c1OCCCO2 (relative stereo) [Compound 30]	1 nM	–
